How the values were obtained:
Cathepsin B [1] = molecular target: T1, Cathepsin B (Homo sapiens, UniProt P07858); assay: Inhibitory activity against Cathepsin B was determined
Cathepsin B [2] = molecular target: T1, Cathepsin B; assay: Inhibitory activity against Cathepsin B at a concentration of 10 ng/mL
Cathepsin B [3] = molecular target: T1, Cathepsin B; assay: Inhibitory activity against Cathepsin B at a concentration of 1 ng/mL
Cathepsin B [4] = molecular target: T1, Cathepsin B; assay: Inhibitory activity against Cathepsin B at a concentration of 400 ng/mL
Cathepsin B [5] = molecular target: T1, Cathepsin B; assay: Inhibitory activity against Cathepsin B at a concentration of 70 ng/mL
Cathepsin B [6] = molecular target: T1, Cathepsin B; assay: Inhibitory activity against Cathepsin B at a concentration of 7 ng/mL
Cathepsin B [7] = molecular target: T1, Cathepsin B; assay: Inhibitory activity against Cathepsin B at a concentration of 4 ng/mL
Cathepsin B [8] = molecular target: T1, Cathepsin B; assay: Inhibitory activity against Cathepsin B at a concentration of 900 ng/mL
Cathepsin B [9] = molecular target: T1, Cathepsin B; conditions: 40 ng/mL
Description: Inhibitory activity against Cathepsin B at a concentration of 40 ng/mL

Cathepsin B [10] = molecular target: T1, Cathepsin B; assay: Inhibitory activity against Cathepsin B at a concentration of 200 ng/mL
Cathepsin B [11] = molecular target: T1, Cathepsin B; assay: Inhibitory activity against Cathepsin B at a concentration of 50 ng/mL
Cathepsin B [12] = molecular target: T1, Cathepsin B; assay: Inhibitory activity against Cathepsin B at a concentration of 1000 ng/mL

Question: Which IC50 (Cathepsin B [1]) does the source give for CC(C)[C@H](NC(=O)c1ccc(O)cc1)C(=O)N[C@H](C(=O)N[C@H](C=O)CCCN=C(N)N)C(C)C [TOKARAMIDE A] here?
Answer: Its IC50 is 60.9 nM.

Question: And the inhibition (Cathepsin B [2])?
Answer: The inhibition was 30%.

Question: And the inhibition (Cathepsin B [3])?
Answer: Its inhibition is 10%.

Question: And the inhibition (Cathepsin B [4])?
Answer: Its inhibition is 90%.

Question: And the inhibition (Cathepsin B [5])?
Answer: The inhibition was 70%.

Question: What about the inhibition (Cathepsin B [6]) of the same compound?
Answer: Its inhibition is 16%.

Question: What about the inhibition (Cathepsin B [7]) of the same compound?
Answer: Its inhibition is 12%.

Question: What about the inhibition (Cathepsin B [8]) of the same compound?
Answer: The inhibition was 100%.

Question: What about the inhibition (Cathepsin B [9]) of the same compound?
Answer: The inhibition was 45%.

Question: CC(C)C[C@H](NC(=O)[C@H]1O[C@@H]1C(=O)O)C(=O)NCCCCN=C(N)N [E-64] was tested. Which IC50 (Cathepsin B [1]) did it give?
Answer: The IC50 was 13.7 nM.

Question: And the inhibition (Cathepsin B [2])?
Answer: The inhibition was 75%.

Question: And the inhibition (Cathepsin B [3])?
Answer: Its inhibition is 24%.

Question: What about the inhibition (Cathepsin B [10]) of the same compound?
Answer: The inhibition was 98%.

Question: And the inhibition (Cathepsin B [4])?
Answer: Its inhibition is 100%.

Question: What about the inhibition (Cathepsin B [11]) of the same compound?
Answer: Its inhibition is 90%.

Question: What about the inhibition (Cathepsin B [5]) of the same compound?
Answer: The inhibition was 95%.

Question: And the inhibition (Cathepsin B [6])?
Answer: The inhibition was 52%.

Question: And the inhibition (Cathepsin B [7])?
Answer: The inhibition was 29%.

Question: Which results are given for CC(=O)N[C@@H](CC(C)C)C(=O)N[C@@H](CC(C)C)C(=O)N[C@H](C=O)CCCNC(=N)N [LEUPEPTIN]?
Answer: IC50 (Cathepsin B [1]): 21.6 nM; inhibition (Cathepsin B [12]): 100%; inhibition (Cathepsin B [2]): 55%; inhibition (Cathepsin B [3]): 15%; inhibition (Cathepsin B [10]): 95%; inhibition (Cathepsin B [4]): 100%; inhibition (Cathepsin B [11]): 75%; inhibition (Cathepsin B [5]): 82%; inhibition (Cathepsin B [6]): 35%; inhibition (Cathepsin B [7]): 25%; inhibition (Cathepsin B [8]): 100%

From ChEMBL document CHEMBL1131905, “Tokaramide A, a new cathepsin B inhibitor from the marine sponge Theonella aff. mirabilis” (Bioorg Med Chem Lett, 1999)
